Converted amounts (≈) assume the structure as drawn. Read-outs that look alike come from different tables or passages of the source.
Legend:
Streptococcus uberis = assay: in vitro bacteriostatic activity, agar dilution MIC; type: cell-based; details: Streptococcus uberis 12-1
Corynebacterium = assay: as above; type: cell-based; details: Coryneba cterium 12-1
Kurthia gibsonii = assay: as above; type: cell-based
Staphylococcus wameri = assay: as above; type: cell-based
Staphylococcus xylosus = assay: as above; type: cell-based
[1] = system: Staphylococcus aureus MSSA; assay: as above; type: cell-based; details: Staphylococcus aureus, MSSA, read-out: MIC
[2] = system: Gram-positive bacteria and Gram-negative bacteria; assay: in vitro bacteriostatic activity, summary of Tables 1-5; type: cell-based; details: read-out: MIC values
Method: Preparation of drug-containing flat plates: patchoulol was diluted by coubling double dilution in DMSO, and 1 ml and 14 ml of sterile MH culture media in different gradient concentrations were respectively added to the disposable sterile petri dishes. Tested drugs were respectively diluted to different gradient concentrations from 768 to 0.006 µg/ml, fully mixed, and dried to reserve. As mentioned above, replacing tested drug with same amount of normal saline was used to prepare positive control plates.
Preparation of bacterial liquid: Tested strains and drug-sensitive strains used for quality control were diluted with stroke-physiological saline solution to the concentration of 10^6 CFU/ml. […]
Staphylococcus aureus and Staphylococcus epidermidis were cultured at 35-37°C for 18-24 h in MH media (containing 2% NaCl); Streptococcus pneumonia was cultured in brain heart infusion agar media (containing 5% goat blood) within an incubator under 5% CO2 at 35°C for 24 hours; Gram-negative bacteria and other strains were placed in an incubator at 35-37°C and cultured for 18-20 h; Results were observed and recorded. […]

[3] = system: influenza virus type A (H2N2); details: in vitro; cited from earlier work
[4] = cited from earlier work
influenza virus FM1 = details: 30 mg/kg; cited from earlier work
termites = details: in vivo; cited from earlier work
neurotoxicity of Aβ25∼35 = details: in vitro, 0.05, 0.5, 5 µg/ml; cited from earlier work

Work on `C[C@H]1CC[C@@]2(O)C(C)(C)[C@@H]3CC[C@@]2(C)[C@H]1C3` (stereo in doubt) [PC, (1R,4S,4aS,6R,8aS)-octahydro-4,8a,9,9-tetramethyl-1,6-methanonaphthalen-1(2H)-ol] yielded an MIC (Streptococcus uberis) of 25 µg/mL (≈ 112 µM), an MIC (Corynebacterium) of 12.5 µg/mL (≈ 56.2 µM) and an MIC (Kurthia gibsonii; Kurthia gibsonii 12-1, read-out: MIC) of 50 µg/mL (≈ 225 µM). It also gave an MIC (Kurthia gibsonii; Kurthia gibsonii 12-2) of 50 µg/mL (≈ 225 µM), an MIC (Staphylococcus wameri) of 50 µg/mL (≈ 225 µM) and an MIC (Staphylococcus xylosus; Staphylococcus xylosus 12-1 (first line, r17), read-out: MIC) of 100 µg/mL (≈ 450 µM). For the same compound, the MIC (Staphylococcus xylosus; Staphylococcus xylosus 12-1 (second line, r18)) was 100 µg/mL (≈ 450 µM), the MIC ([1]; Staphylococcus aureus MSSA 10-38) was 1.5 µg/mL (≈ 6.75 µM) and the MIC ([1]; Staphylococcus aureus MSSA 10-40) was 1.5 µg/mL (≈ 6.75 µM). It also gave an MIC ([1]; Staphylococcus aureus MSSA 10-41) of 1.5 µg/mL (≈ 6.75 µM), an MIC ([1]; Staphylococcus aureus MSSA 12-11) of 128 µg/mL (≈ 576 µM) and an MIC ([1]; Staphylococcus aureus MSSA 12-13) of 128 µg/mL (≈ 576 µM). The MIC ([1]; Staphylococcus aureus MSSA 12-14) was 64 µg/mL (≈ 288 µM), the MIC ([1]; Staphylococcus aureus MSSA 12-15) was 128 µg/mL (≈ 576 µM) and the MIC ([1]; Staphylococcus aureus MSSA 12-16) was 64 µg/mL (≈ 288 µM). It also gave an MIC ([1]; Staphylococcus aureus MSSA 12-17) of 64 µg/mL (≈ 288 µM), an MIC ([1]; Staphylococcus aureus MSSA 12-18) of 128 µg/mL (≈ 576 µM) and an MIC ([1]; Staphylococcus aureus MSSA 12-19) of 128 µg/mL (≈ 576 µM). For the same compound, the MIC ([1]; Staphylococcus aureus MSSA 12-20) was 64 µg/mL (≈ 288 µM), the MIC ([1]; Staphylococcus aureus MSSA 12-21) was 64 µg/mL (≈ 288 µM) and the MIC [2] was 1.5 to 200 µg/mL (≈ 6.75 to 899 µM). The IC50 [3] was 4.03 ± 0.23 µM, the solubility ([4]; in petroleum ether, ethanol and other commonly used organic solvents) was “freely soluble” and the solubility ([4]; in water) was “insoluble”. For the same compound, the “survival rate of infected mice” value (influenza virus FM1) was “improve the survival rate”, the effect on termites (termites) was “obviously toxic and removal effect” and the “increase of intra-cellular ROS level and [Ca^2+]I induced by Aβ25~35” value (neurotoxicity of Aβ25∼35) was “inhibit the increase”.
